We go through 7 molecules from patent publication US20130310625A1, “VELIPARIB IN COMBINATION WITH WHOLE BRAIN RADIATION THERAPY FOR THE TREATMENT OF BRAIN METASTASES” (AbbVie Inc., priority 2012, published 2013).

Series [1] is described as follows: Phase 1 pharmacokinetics of veliparib administered concurrently with WBRT in patients with brain metastases. The class given is in vivo, human. The protocol: (§1) This example is a Phase 1, multicenter, dose-escalation study evaluating the safety, tolerability and pharmacokinetics of veliparib administered concurrently with conventional WBRT in subjects with solid primary tumors metastatic to the brain.
(§2) Patients received WBRT delivered in 2.5 Gy fractions once a day (QD) for a total of 15 fractions or WBRT delivered at 3.0 Gy fractions QD for a total of 10 fractions.
(§3) Veliparib dose-escalation began at 10 mg and increased to 20, 30, 50, 80, 100, 150, 200, and 300 mg twice a day (BID) through out the entire course of WBRT (Table 2); the final WBRT fraction was followed by 1 extra day of veliparib.
To determine PK of veliparib, intensive PK sampling was performed on Day 1 of the WBRT schedules (15 and 10 day) at the following time points: 0, 30, 1, 2, 6 and 24 hours. PK as was also performed on Day 6 for both WBRT schedules at the following time points: 0, 30 min, 1, 2, and 6 For the 15 Day schedule sampling was performed on Day 15 at 0, 30 min, 1, 2 and 6 hours. For the 10 day schedule only a 0 hour sample was collected. Post treatment samples were collected 24-72 hours after the last dose of veliparib for both WBRT schedules.

For series [2] the following is noted: nonhuman primate model (Muscal et al. 2010); cited from earlier work.
For series [3] the following is noted: preclinical study; cited from earlier work.
Series [4] in a line: Phase 1 safety and tolerability of veliparib with WBRT (AEs by NCI CTCAE v3.0, DLTs). It counts as in vivo, human. The protocol: as §1, §2, §3
AEs were assessed by NCI CTCAE v3.0.

The next series relates to brain metastases. Particulars: radio-sensitizer added to WBRT, randomized controlled studies; cited from earlier work.
Setting [5] is: N = 66, possibly or probably related to veliparib.

“Also recorded” adds a separate entry of the source.

For `C[C@]1(c2nc3c(C(N)=O)cccc3[nH]2)CCCN1` [Veliparib, 2-[(2R)-2-methylpyrrolidin-2-yl]-1H-benzimidazole-4-carboxamide], in series [1] (10 to 150 mg BID dose range), the “Increase in veliparib exposure (Cmax and AUC) with increase in veliparib dose” value is listed as “approximately dose-proportional”. For the same molecule, the “veliparib accumulation following BID dosing” value in series [1] (Cmax and AUC on Day 1, Day 6 and Day 15) was “minimal”. Moreover, the “effect of food on veliparib oral bioavailability” value in series [1] (exposure Day 6 (fasting) vs Day 15 (non-fasting)) was “no significant effect of food”. Further, in series [1] (human, plasma, oral veliparib BID with WBRT, patients), the time to peak (Tmax) lay within 1 to 2 h. This molecule yielded an oral clearance in series [1] (mean±SD, n=45, 10 to 150 mg BID dose range) of 21.6 ± 14.2 L/h. In series [2], the “level in CSF” value is “measured in CSF in a range that has been shown to inhibitor PARP activity in vivo in humans”. The “blood-brain barrier crossing and accumulation in brain tumor tissue” value in series [3] was “shown to cross the blood-brain barrier and accumulate in brain tumor tissue”. In addition, the DLT entry in series [4] (150 mg veliparib BID, one patient each) is recorded as “grade 3 hypokalemia; also recorded: grade 3 hyponatraemia”. Also, the “dose limiting toxicities (DLTs)” value in series [4] (10, 20, 30, 50, 80, 100, 200 and 300 mg dose levels) is recorded as “No dose limiting toxicities (DLTs) were observed”. In series [4] (N = 66), the “Any Event, Any Grade, treatment-emergent AEs possibly or probably related to veliparib” value is on record as 37 (56) n (%) and the “Any Event, Grade 3/4 AEs possibly or probably related to veliparib” value is recorded as 10 (15) n (%). In addition, in series [4] (setting [5]), the “Decreased Appetite, Any Grade” value is listed as 8 (12) n (%); the “Fatigue, Any Grade” value was 22 (33.3) n (%); the “Fatigue, Grade 3/4” value is listed as 3 (5) n (%); the “Nausea, Any Grade” value is listed as 13 (19.7) n (%). Moreover, in series [4] (setting [5]), the “Nausea, Grade 3/4” value is 1 (2) n (%) and the “Vomiting, Any Grade” value is given as 8 (12) n (%). Besides, the “patients with AEs leading to study drug discontinuation” value in series [4] (all causes) is listed as 8 (12%) patients. For the same molecule, the “patients with AEs leading to study drug discontinuation possibly or probably related to veliparib” value in series [4] (in vivo) is recorded as 2 (3%) patients.
For `O=c1[nH]c(=O)n([C@H]2C[C@H](O)[C@@H](CO)O2)cc1Br` [bromodeoxyuridine], in the series on brain metastases, the “benefit in local brain tumor control or overall survival” value (“benefit” below) is listed as “failing to benefit”.
For `Cc1cc(C)cc(NC(=O)Cc2ccc(OC(C)(C)C(=O)O)cc2)c1` [efaproxiral], in the series on brain metastases, the “benefit” value was “failing to benefit”.
Turning to `O=C(O)c1nn(Cc2ccc(Cl)cc2Cl)c2ccccc12` [lonidamine], the “benefit” value in the series on brain metastases is on record as “failing to benefit”.
Regarding `Cc1ncc([N+](=O)[O-])n1CCO` [metronidazole], the “benefit” value in the series with brain metastases was “failing to benefit”.
As for `COCC(O)Cn1ccnc1[N+](=O)[O-]` (stereo not shown) [misonidazole], the “benefit” value with brain metastases is recorded as “failing to benefit”.
For `CC(=O)[O-].CC(=O)[O-].CCc1c(CC)c2cc3nc(cnc4cc(OCCOCCOCCOC)c(OCCOCCOCCOC)cc4ncc4nc(cc1[n-]2)C(CCCO)=C4C)C(C)=C3CCCO.O.[Gd+3]` [motexafin gadolinium], the “benefit” value with brain metastases was “failing to benefit”.
